Results as given in ChEMBL document CHEMBL5725348, “Benzimidazole inhibitors of the sodium channel” (2017).

experiment: Nav1.5 Assay: To assess the potential cardiac liability of compounds at an early stage in the drug discovery process, a Nav1.5 sodium channel screening assay was be performed on Molecular Device's PatchXpress™ automated electrophysiology platform. Under voltage-clamp conditions, Nav1.5 currents were recorded from HEK cells expressing the human Nav1.5 channel in the absence and presence of increasing concentrations of the test compound to obtain an IC50 value. The external recording solution contained (in mM): 90 TEACl, 50 NaCl, 1.8 CaCl, 1 MgCl2, 10 HEPES, 10 glucose, adjusted to pH 7.4 with TEA-OH and to 300 mOsm with sucrose (if necessary), while the internal patch pipette solution contained (in mM): 129 CsF, 2 MgCl2, 11 EGTA, 10 HEPES, 3 Na2ATP adjusted to pH 7.2 with CsOH and to 290 mOsm with sucrose (if necessary). Nav1.5 channel currents were evoked using a cardiac action potential waveform at 1 Hz, digitized at 31.25 kHz and low-pass filtered at 12 kHz.; settings: HEK293

For `NCc1nc2cc(C(F)(F)F)cc(C(F)(F)F)c2[nH]1`, which IC50 is on record?
Its IC50 is greater than 10 µM.

With `O=C1CNCCN1Cc1nc2cc(C(F)(F)F)cc(C(F)(F)F)c2[nH]1` as the compound, how does the IC50 read?
Its IC50 is greater than 10 µM.

With `O=C1CNCCN1Cc1nc2cc(C(F)(F)F)c(C(F)(F)F)cc2[nH]1` as the compound, how does the IC50 read?
Its IC50 is greater than 10 µM.

With `NCC(=O)NCc1nc2cc(Cl)c(Cl)cc2[nH]1` as the compound, how does the IC50 read?
Its IC50 is greater than 10 µM.

For `NCCc1nc2cc(C(F)(F)F)cc(C(F)(F)F)c2[nH]1`, which IC50 is on record?
The IC50 was greater than 10 µM.

For `CNCc1nc2cc(C(F)(F)F)cc(C(F)(F)F)c2[nH]1`, which IC50 is on record?
The IC50 was greater than 10 µM.

Which IC50 does the source give for `CC(C)(N)Cc1nc2cc(C(F)(F)F)cc(C(F)(F)F)c2[nH]1` here?
Its IC50 is 3.6 µM.

Which IC50 does the source give for `CC(C)C[C@H](CN)Cc1nc2c(C(F)(F)F)cc(C(F)(F)F)cc2[nH]1` here?
Its IC50 is greater than 10 µM.

Which IC50 does the source give for `NCC(=O)NCc1nc2cc(C(F)(F)F)cc(C(F)(F)F)c2[nH]1` here?
Its IC50 is greater than 10 µM.

For `NCCCc1nc2cc(C(F)(F)F)cc(C(F)(F)F)c2[nH]1`, which IC50 is on record?
Its IC50 is 7.5 µM.

With `CC1(NC(=O)CN2CC(Cc3nc4c(C(F)(F)F)cc(C(F)(F)F)cc4[nH]3)C2)CCC1` as the compound, how does the IC50 read?
Its IC50 is greater than 10 µM.

Which IC50 does the source give for `CC(C)(N)C(=O)NCc1nc2cc(C(F)(F)F)cc(C(F)(F)F)c2[nH]1` here?
The IC50 was greater than 10 µM.

With `FC(F)(F)c1cc(C(F)(F)F)c2nc(CC3CNC3)[nH]c2c1` as the compound, how does the IC50 read?
The IC50 was greater than 10 µM.
